Laboratory results: ChEMBL document CHEMBL1129586, “Estrogenic triarylethylene acetic acids: effect of structural variation on estrogen receptor affinity and estrogenic potency and efficacy in MCF-7 cells” (J Med Chem, 1996)
Active and inactive are the calls of the source. The rule behind the calls is not given here.

Key:
[1] = target: Estrogen receptor (Rattus norvegicus, UniProt P06211+Q62986)
[2] = system: MCF7; assay: Inhibition of MCF-7 cell proliferation; assay type: functional; conditions: Homo sapiens
[3] = system: MCF7; assay: cells; conditions: Homo sapiens
[4] = system: MCF7; assay: cells; conditions: Homo sapiens; remark: listed apart in the source
Description: Stimulation of MCF-7 cell proliferation

[5] = system: MCF7; assay: Inhibition of MCF-7 cell proliferation; h=No inhibitory effect; assay type: functional, cell-based; conditions: Homo sapiens

SMILES | IC50 [1] | IC30 [2] | IC50 [3] | EC50 [4] | IC30 [5]
CC/C(=C(\c1ccc(O)cc1)c1ccc(CC(=O)O)cc1)c1ccccc1 | 0.45 µM | 0.0025 µM | 0.058 µM | 0.042 µM | 
CCC(=C(c1ccc(O)cc1)c1ccc(O)cc1)c1ccc(OCC(=O)O)cc1 | 0.75 µM |  | 2.39 µM | 0.046 µM | inactive
CC/C(=C(\c1ccc(O)cc1)c1ccc(OCC(=O)O)cc1)c1ccccc1 | 0.009 µM | 0.03 µM | 0.021 µM | 0.0053 µM | 
O=C(O)COc1ccc(C(Cc2ccccc2)c2ccc(O)cc2)cc1 (centres undefined) | 0.9 µM |  | 0.6 µM | 0.016 µM | inactive
CC/C(=C(\c1ccc(C)cc1)c1ccc(OCC(=O)O)cc1)c1ccccc1 | 1.06 µM | 0.013 µM | 0.097 µM | 0.35 µM | 
CC/C(=C(\c1ccccc1)c1ccc(OCC(=O)O)cc1)c1ccccc1 | 4.5 µM | 0.02 µM | 0.32 µM | 0.3 µM | 
